Data as given in ChEMBL document CHEMBL4190224, “Xanthohumol Blocks Proliferation and Migration of Vascular Smooth Muscle Cells in Vitro and Reduces Neointima Formation in Vivo” (J Nat Prod, 2017).
The source made the active and inactive calls. The rule behind the calls is not given here.

Key:
[1] = tested on: VSMC; test: Antimigratory activity against PDGF-BB-stimulated rat VSMC at 15 uM preincubated for 30 mins followed by PDGF-BB addition measured after 20 hrs by scratch wound-healing assay; type: functional, cell-based
[2] = tested on: Mus musculus; test: Inhibition of cuff-induced restenosis in C57BL/6 mouse femoral artery cuff model assessed as reduction in neointima formation dosed via local application using compound dissolved on F-127 gel measured after 2 weeks by hematoxylin and eosin staining-based microscopic analysis; type: functional, organism-based
[3] = tested on: VSMC; test: Cytotoxicity against rat VSMC at 1 to 15 uM after 48 hrs by LDH release assay; type: cell-based
[4] = tested on: VSMC; test: Inhibition of PDGF-BB-induced rat VSMC proliferation preincubated for 30 mins followed by PDGF-BB addition measured after 48 hrs by resazurin assay; type: functional, cell-based

COc1cc(O)c(CC=C(C)C)c(O)c1C(=O)/C=C/c1ccc(O)cc1 [XANTHOHUMOL]
Activity [1]: Active
Activity [2]: Active
Activity [3]: Non-Toxic
IC50 [4]: 3.49 µM
inhibition [4]: Dose-dependent effect
